Values after ≈ are worked out from the molar mass of the structure shown.
Key:
[1] = tested on: P. mirabilis ATCC 29906; assay: MIC assay, CLSI broth microdilution in CAMH broth; assay type: cell-based, Proteus mirabilis
Procedure: (§1) MIC assays for various Gram-negative and Gram-positive strains were conducted in accordance with the CLSI guidelines for broth microdilution. A 96-well plate containing CAMH broth with 2-fold serial dilution of compounds was inoculated with log-phase bacterial at 5×10^5 CFU/mL. The final volume in each well was 100 μL. Each compound was tested in duplicate. The microtiter plates were incubated in an aerobic environment for 18 hours at 37° C. Then the bacterial growth was tested by reading the plate with a SpectraMax iD5 plate reader (Molecular Devices, Inc.) at 600 nm. The MIC was defined as the lowest compound concentration that inhibited bacteria growth.
(§2) The following Gram-negative and Gram-positive strains were used in the aerobic MIC procedure: • P. aeruginosa ATCC 27853 • A. baumannii ATCC 19606 • E. coli ATCC 25922 • E. coli W4573 • E. coli N43 • K. pneumoniae ATCC 10031 • K. pneumoniae ATCC 13883 • S. sonnei ATCC 29930 • P. mirabilis ATCC 29906 • Methicillin-susceptible S. aureus (MSSA) ATCC 19636 • Methicillin-resistant S. aureus (MRSA) ATCC 33951

[2] = tested on: Methicillin-susceptible S. aureus (MSSA) ATCC 19636; assay: MIC assay, CLSI broth microdilution in CAMH broth; assay type: cell-based, Staphylococcus aureus
Procedure: as §1, §2

[3] = tested on: Methicillin-resistant S. aureus (MRSA) ATCC 33591; assay: MIC assay, CLSI broth microdilution in CAMH broth; assay type: cell-based, Staphylococcus aureus
Procedure: as §1, with “growth. […]” for “growth.”

[4] = tested on: N. gonorrhoeae ATCC 49226; assay: MIC assay for N. gonorrhoeae, broth microdilution in Todd-Hewitt (TH) broth; assay type: cell-based; settings: Neisseria gonorrhoeae, ATCC49226; Antibacterial Activity against N. gonorrhoeae ATCC 49226 in TH
Source text: MIC assays for N. gonorrhoeae were done using the ATCC 49226 strain. The procedure guidelines recommended by the Clinical and Laboratory Standards Institute (CLSI) for the broth microdilution MIC assay were modified by substituting […]. Also, the recommended bacterial inoculum was modified to meet the high inoculum demands needed for N. gonorrhoeae growth. A 96-well plate containing TH broth with 2-fold serial dilution of compounds was inoculated with log-phase bacterial at 2.5×10^7 CFU/mL. The final volume in each well was 200 μL. Each compound was tested in duplicate. The microtiter plates were incubated in an […] environment for 24 hours at 37° C. using the candle jar technique. Then the bacterial growth was tested by reading the plate with a SpectraMax iD5 plate reader (Molecular Devices, Inc.) at 600 nm. The MIC was defined as the lowest compound concentration that inhibited bacteria growth.

| Compound | MIC [4] [µg/mL] | Intrinsic MIC in CAMH [1] | Intrinsic MIC in CAMH [2] | Intrinsic MIC in CAMH [3] |
| --- | --- | --- | --- | --- |
| N#Cc1ccccc1-c1ccc(Cn2ccc3c4nc(N)nc(N)c4ccc32)c(F)c1F [Example 40, 4′-((2,4-diamino-7H-pyrrolo[2,3-h]quinazolin-7-yl)methyl)-2′,3′-difluoro-[1,1′-biphenyl]-2-carbonitrile] | – | >64¤ | 0.25¤ | ≤0.063¤ |
| Nc1nc(NCc2cccc(Br)c2)nc2c1c(Br)cc1c2ccn1Cc1cccc(Br)c1 [Example 48, 5-bromo-N^2,7-bis(3-bromobenzyl)-7H-pyrrolo[2,3-h]quinazoline-2,4-diamine] | – | >64¤ | >64¤ | >64¤ |
| Nc1nc(N)c2ccc3c(ccn3Cc3cc(Cl)ccc3F)c2n1 [Example 12, 7-(5-chloro-2-fluorobenzyl)-7H-pyrrolo[2,3-h]quinazoline-2,4-diamine] | 4 (≈ 11.7 µM) | – | – | – |
| N#Cc1ccccc1-c1ccc(Cn2ccc3c4nc(N)nc(N)c4c(Br)cc32)cc1F [Example 46, 4′-((2,4-diamino-5-bromo-7H-pyrrolo[2,3-h]quinazolin-7-yl)methyl)-2′-fluoro-[1,1′-biphenyl]-2-carbonitrile] | – | >64¤ | 4¤ | 2¤ |
| C#Cc1ccc(Cn2ccc3c4nc(N)nc(N)c4cnc32)cc1 [Example 53, 7-(4-ethynylbenzyl)-7H-pyrrolo[3′,2′:5,6]pyrido[4,3-d]pyrimidine-2,4-diamine] | – | >64¤ | ≤0.063¤ | ≤0.063¤ |
| Nc1nc(N)c2c(Br)cc3c(ccn3Cc3cccc(Br)c3)c2n1 [Example 47, 5-bromo-7-(3-bromobenzyl)-7H-pyrrolo[2,3-h]quinazoline-2,4-diamine] | – | 8¤ | 4¤ | 4¤ |
| Nc1nc(N)c2ccc3c(ccn3CC3CC3)c2n1 [Example 28, 7-(cyclopropylmethyl)-7H-pyrrolo[2,3-h]quinazoline-2,4-diamine] | 8 (≈ 31.6 µM) | – | – | – |
| COC(=O)c1ccc(-c2ccc(Cn3ccc4c5nc(N)nc(N)c5ccc43)cc2)cc1 [Example 20, methyl 4′-((2,4-diamino-7H-pyrrolo[2,3-h]quinazolin-7-yl)methyl)-[1,1′-biphenyl]-4-carboxylate] | > 32 | – | – | – |
| N#Cc1ccccc1-c1ccc(Cn2ccc3c4nc(N)nc(N)c4cnc32)cc1F [Example 51, 4′-((2,4-diamino-7H-pyrrolo[3′,2′:5,6]pyrido[4,3-d]pyrimidin-7-yl)methyl)-2′-fluoro-[1,1′-biphenyl]-2-carbonitrile] | – | >64¤ | ≤0.063¤ | ≤0.063¤ |
| CN[C@H](CC(C)C)C(=O)N[C@H]1C(=O)N[C@@H](CC(N)=O)C(=O)N[C@H]2C(=O)N[C@H]3C(=O)N[C@H](C(=O)N[C@H](C(=O)O)c4cc(O)cc(O)c4-c4cc3ccc4O)[C@H](O)c3ccc(c(Cl)c3)Oc3cc2cc(c3O[C@@H]2O[C@H](CO)[C@@H](O)[C@H](O)[C@H]2O[C@H]2C[C@](C)(N)[C@H](O)[C@H](C)O2)Oc2ccc(cc2Cl)[C@H]1O [VAN, reference compound] | – | – | 2¤ | 2¤ |
| N#Cc1ccccc1-c1ccc(CNc2nc(N)c3cnc4c(ccn4Cc4ccc(-c5ccccc5C#N)c(F)c4)c3n2)cc1F [Example 52, 4′-((4-amino-2-(((2′-cyano-2-fluoro-[1,1′-biphenyl]-4-yl)methyl)amino)-7H-pyrrolo[3′,2′:5,6]pyrido[4,3-d]pyrimidin-7-yl)methyl)-2′-fluoro-[1,1′-biphenyl]-2-carbonitrile] | – | >64¤ | >64¤ | >64¤ |
| COc1cc(Cn2ccc3c4nc(N)nc(N)c4ccc32)cc(OC)c1 [Example 14, 7-(3,5-dimethoxybenzyl)-7H-pyrrolo[2,3-h]quinazoline-2,4-diamine] | > 64 | – | – | – |
| Nc1nc(N)c2ccc3c(ccn3Cc3ccc(Oc4ccccc4)cc3)c2n1 [Example 15, 7-(4-phenoxybenzyl)-7H-pyrrolo[2,3-h]quinazoline-2,4-diamine] | 8 (≈ 21 µM) | – | – | – |
| N#Cc1ccc(Cn2ccc3c4nc(N)nc(N)c4ccc32)cc1 [Example 5, 4-((2,4-diamino-7H-pyrrolo[2,3-h]quinazolin-7-yl)methyl)benzonitrile] | 16 (≈ 50.9 µM) | – | – | – |
| Cc1cc2c3nc(N)nc(N)c3ccc2n1Cc1cccc(Br)c1 [Example 30, 7-(3-bromobenzyl)-8-methyl-7H-pyrrolo[2,3-h]quinazoline-2,4-diamine] | 16 (≈ 41.9 µM) | – | – | – |

Second part, led by results:

| MIC [4] [µg/mL] | Compound | Intrinsic MIC in CAMH [1] | Intrinsic MIC in CAMH [2] | Intrinsic MIC in CAMH [3] |
| --- | --- | --- | --- | --- |
| 16 (≈ 44.7 µM) | Nc1nc(N)c2ccc3c(ccn3Cc3cc(Cl)ccc3Cl)c2n1 [Example 13, 7-(2,5-dichlorobenzyl)-7H-pyrrolo[2,3-h]quinazoline-2,4-diamine] | – | – | – |
| 4 (≈ 10.7 µM) | Nc1nc(N)c2ccc3c(ccn3Cc3nc(-c4ccccc4)cs3)c2n1 [Example 24, 7-((4-phenylthiazol-2-yl)methyl)-7H-pyrrolo[2,3-h]quinazoline-2,4-diamine] | – | – | – |
| > 64 | Cc1cc2c3nc(N)nc(N)c3ccc2n1Cc1ccc(-c2ccccc2-c2nnn[nH]2)cc1 [Example 32, 7-((2′-(1H-tetrazol-5-yl)-[1,1′-biphenyl]-4-yl)methyl)-8-methyl-7H-pyrrolo[2,3-h]quinazoline-2,4-diamine] | – | – | – |
| > 64 | Cn1c(Cn2ccc3c4nc(N)nc(N)c4ccc32)nc2ccccc21 [Example 23, 7-((1-methyl-1H-benzo[d]midazole-2-yl)methyl)-7H-pyrrolo[2,3-h]quinazoline-2,4-diamine] | – | – | – |
| 32 (≈ 105 µM) | Nc1nc(N)c2ccc3c(ccn3C(=O)c3ccccc3)c2n1 [Example 29, (2,4-diamino-7H-pyrrolo[2,3-h]quinazolin-7-yl)(phenyl)methanone] | – | – | – |
| 16 (≈ 43.8 µM) | Nc1nc(N)c2ccc3c(ccn3Cc3cccc(-c4ccccc4)c3)c2n1 [Example 18, 7-([1,1′-biphenyl]-3-ylmethyl)-7H-pyrrolo[2,3-h]quinazoline-2,4-diamine] | – | – | – |
| 4 (≈ 10.7 µM) | Nc1nc(N)c2ccc3c(ccn3Cc3ccc(C(F)(F)F)c(F)c3)c2n1 [Example 11, 7-(3-fluoro-4-(trifluoromethyl)benzyl)-7H-pyrrolo[2,3-h]quinazoline-2,4-diamine] | – | – | – |
| 8 (≈ 21.9 µM) | Nc1nc(N)c2ccc3c(ccn3Cc3ccc(-c4ccccc4)cc3)c2n1 [Example 17, 7-([1,1′-biphenyl]-4-ylmethyl)-7H-pyrrolo[2,3-h]quinazoline-2,4-diamine] | – | – | – |
| 0.25 (≈ 0.64 µM) | N#Cc1ccccc1-c1ccc(Cn2ccc3c4nc(N)nc(N)c4ccc32)cc1 [Example 19, 4′-((2,4-diamino-7H-pyrrolo[2,3-h]quinazolin-7-yl)methyl)-[1,1′-biphenyl]-2-carbonitrile] | – | – | – |
| 8 (≈ 22.2 µM) | Cc1cc2c3nc(N)nc(N)c3ccc2n1Cc1nc2ccccc2s1 [Example 33, 7-(benzo[d]thiazol-2-ylmethyl)-8-methyl-7H-pyrrolo[2,3-h]quinazoline-2,4-diamine] | – | – | – |
| 16 (≈ 42.9 µM) | Nc1nc(N)c2ccc3c(ccn3Cc3ccc(OC(F)(F)F)cc3)c2n1 [Example 9, 7-(4-(trifluoromethoxy)benzyl)-7H-pyrrolo[2,3-h]quinazoline-2,4-diamine] | – | – | – |
| 16 (≈ 43.3 µM) | Nc1nc(N)c2ccc3c(ccn3Cc3ccc(Br)cn3)c2n1 [Example 22, 7-((5-bromopyridin-2-yl)methyl)-7H-pyrrolo[2,3-h]quinazoline-2,4-diamine] | – | – | – |
| 8 (≈ 22.4 µM) | Nc1nc(N)c2ccc3c(ccn3Cc3cccc(C(F)(F)F)c3)c2n1 [Example 8, 7-(3-(trifluoromethyl)benzyl)-7H-pyrrolo[2,3-h]quinazoline-2,4-diamine] | – | – | – |
| 4 (≈ 12.1 µM) | CC(C)c1ccc(Cn2ccc3c4nc(N)nc(N)c4ccc32)cc1 [Example 10, 7-(4-isopropylbenzyl)-7H-pyrrolo[2,3-h]quinazoline-2,4-diamine] | – | – | – |
| 8 (≈ 27.6 µM) | Nc1nc(N)c2ccc3c(ccn3Cc3ccccc3)c2n1 [Example 1, 7-benzyl-7H-pyrrolo[2,3-h]quinazoline-2,4-diamine] | – | – | – |
| 4 (≈ 15 µM) | CC(C)=CCn1ccc2c3nc(N)nc(N)c3ccc21 [Example 25, 7-(3-methylbut-2-en-1-yl)-7H-pyrrolo[2,3-h]quinazoline-2,4-diamine] | – | – | – |

Source: patent US20240317749A1, “THERAPEUTIC COMPOUNDS” (priority 2021, published 2024)
